Results published in US20130072533A1, “COMPOUNDS WITH BOTH ANALGESIC AND ANTI-HYPERALGESIC EFFICACY” (priority 2010, published 2013).
Where a name gives a salt, the structure may show the parent alone.

Assays:
[1] = test system: osteoarthritis induced pain (MIA) in the rat; assay: Paw pressure test, osteoarthritis induced pain (intra-articular monosodium iodoacetate); assay type: in vivo; settings: for PAW PRESSURE, AFTER TREATMENT (15 min) / PAW PRESSURE, AFTER TREATMENT 30 min / PAW PRESSURE, Pre-test: MIA rats
Description: At the same doses of 10 and 30 mg kg^−1 per os, the racemic mixture under study was also found to be effective in reversing the pain threshold reduction induced by the intra-articular Injection of monoiodide acetate at a dose of 2 mg in a 25 μl volume (osteoarthritis model). In this case the effect is statistically significant up to 45 minutes after administration at the lower dose and up to 60 minutes at the three-fold dose.

[2] = test system: oxaliplatin induced hyperalgesia in the rat; assay: Paw pressure test, oxaliplatin-induced hyperalgesia; assay type: in vivo; settings: oxaliplatin rats
[3] = test system: pain threshold of the mouse; assay: Hot plate test (acute thermal stimulus); assay type: in vivo; settings: for HOT PLATE TEST, 15 min / HOT PLATE TEST, 30 min / HOT PLATE TEST, 45 min / HOT PLATE TEST, 60 min / HOT PLATE TEST, Pre-test: mice
[4] = test system: spontaneous motility and exploratory activity of the mouse; assay: Hole-board test; assay type: in vivo
Text: (§1) In particular, in the case of the rotarod, the number of falls from the rotating rod progressively decreases with repeated falls. This confirms that the observed anti-hyperalgesic effects are not due to a change in the animal's behaviour.

[5] = test system: acetic acid induced writhes in mice; assay: Abdominal writhing test (acetic acid 0.6%); assay type: in vivo, mouse
Description: The 10 mg kg^−1 per os dose was also found to be effective.

[6] = test system: motor coordination of the mouse; assay: Rotarod test; assay type: in vivo
Text: as §1

[7] = test system: hyperalgesia induced in the rat by loose ligation of the sciatic nerve; assay: Paw pressure test, rat mononeuropathy (loose ligation of the sciatic nerve); assay type: in vivo
Description: In particular, a racemic mixture of the compounds of formula (I) in the form of sodium salt, in which the stereogenic centre deriving from camosine is in the L configuration, was subjected to in vivo pharmacological tests which have enabled their surprising analgesic effects to be discovered.
The observed effect is greater, albeit slightly, than that obtained by tramadol 100 mg kg^−1 per os and pregabalin 200 mg kg^−1 per os, in the same experimental model.

[8] = 30 mg kg^−1 per os, 30 min before the test

In the case of `O=C(CCCCC1CCSS1)NCCC(=O)NC(Cc1cnc[nH]1)C(=O)O` (racemic) [Compound 2], the “PAW PRESSURE, AFTER TREATMENT (15 min)” value ([1]; 10 mg/kg p.o.) was 49.3 ± 2.5 g, the “PAW PRESSURE, AFTER TREATMENT 30 min” value ([1]; 10 mg/kg p.o.) was 45.3 ± 3.9 g and the “PAW PRESSURE, Pre-test” value ([1]; 10 mg/kg p.o.) was 24.5 ± 2.1 g. For the same compound, the “PAW PRESSURE, AFTER TREATMENT (15 min)” value ([1]; 30 mg/kg p.o.) was 59.1 ± 3.3 g, the “PAW PRESSURE, AFTER TREATMENT 30 min” value ([1]; 30 mg/kg p.o.) was 54.7 ± 3.6 g and the “PAW PRESSURE, Pre-test” value ([1]; 30 mg/kg p.o.) was 24.4 ± 2.5 g. For the same compound, the “time after administration up to which the effect is statistically significant” value ([1]; lower dose (10 mg kg^−1 per os)) was “up to 45 minutes”, the “time after administration up to which the effect is statistically significant” value ([1]; three-fold dose (30 mg kg^−1 per os)) was “up to 60 minutes” and the “PAW PRESSURE TEST, AFTER TREATMENT 15 min” value ([2]; 10 mg/kg per os) was 34.6 ± 3.1^ g. For the same compound, the “PAW PRESSURE TEST, AFTER TREATMENT 30 min” value ([2]; 10 mg/kg per os) was 36.7 ± 3.5^ g, the “PAW PRESSURE TEST, AFTER TREATMENT 45 min” value ([2]; 10 mg/kg per os) was 31.9 ± 3.5 g and the “PAW PRESSURE TEST, AFTER TREATMENT 60 min” value ([2]; 10 mg/kg per os) was 26.9 ± 2.8 g. For the same compound, the “PAW PRESSURE TEST, Pre-test” value ([2]; 10 mg/kg per os) was 23.8 ± 3.6 g, the “PAW PRESSURE TEST, AFTER TREATMENT 15 min” value ([2]; 30 mg/kg per os) was 43.6 ± 3.9 g and the “PAW PRESSURE TEST, AFTER TREATMENT 30 min” value ([2]; 30 mg/kg per os) was 48.9 ± 3.6 g. For the same compound, the “PAW PRESSURE TEST, AFTER TREATMENT 45 min” value ([2]; 30 mg/kg per os) was 41.6 ± 3.6 g, the “PAW PRESSURE TEST, AFTER TREATMENT 60 min” value ([2]; 30 mg/kg per os) was 31.7 ± 3.3 g and the “PAW PRESSURE TEST, Pre-test” value ([2]; 30 mg/kg per os) was 22.9 ± 3.5 g. The “HOT PLATE TEST, 15 min” value ([3]; 1 mg/kg per os) was 18.7 ± 2.7, the “HOT PLATE TEST, 30 min” value ([3]; 1 mg/kg per os) was 25.1 ± 2.7 and the “HOT PLATE TEST, 45 min” value ([3]; 1 mg/kg per os) was 14.0 ± 2.0. For the same compound, the “HOT PLATE TEST, 60 min” value ([3]; 1 mg/kg per os) was 15.7 ± 2.6, the “HOT PLATE TEST, Pre-test” value ([3]; 1 mg/kg per os) was 15.7 ± 0.8 and the “HOT PLATE TEST, 15 min” value ([3]; 10 mg/kg per os) was 25.9 ± 2.8. For the same compound, the “HOT PLATE TEST, 30 min” value ([3]; 10 mg/kg per os) was 22.3 ± 2.6, the “HOT PLATE TEST, 45 min” value ([3]; 10 mg/kg per os) was 19.3 ± 1.9 and the “HOT PLATE TEST, 60 min” value ([3]; 10 mg/kg per os) was 17.4 ± 0.8. The “HOT PLATE TEST, Pre-test” value ([3]; 10 mg/kg per os) was 15.3 ± 0.9, the “HOT PLATE TEST, 15 min” value ([3]; 30 mg/kg per os) was 29.7 ± 2.8 and the “HOT PLATE TEST, 30 min” value ([3]; 30 mg/kg per os) was 26.0 ± 2.7. The “HOT PLATE TEST, 45 min” value ([3]; 30 mg/kg per os) was 20.3 ± 2.9, the “HOT PLATE TEST, 60 min” value ([3]; 30 mg/kg per os) was 18.7 ± 2.1 and the “HOT PLATE TEST, Pre-test” value ([3]; 30 mg/kg per os) was 15.7 ± 1.3. For the same compound, the “rise of the pain threshold” value ([3]; dose range between 1 and 30 mg kg^−1 per os) was “able to raise the pain threshold in a dose-dependent manner”, the “change of behavioural parameters: spontaneous motility and exploratory activity (hole-board)” value ([4]; 30 mg kg^−1 per os) was “does not alter the behavioural parameters” and the No. of inspections ([4]; 30 mg/kg per os, mice) was 37.8 ± 7.5. For the same compound, the No. of movements ([4]; 30 mg/kg per os, mice) was 30.3 ± 7.7, the no. of writhes ([5]; 1 mg kg^−1 per os, 30 min before the test) was 28.5 ± 2.8 and the no. of writhes ([5]; 10 mg kg^−1 per os, 30 min before the test) was 21.8 ± 3.1. For the same compound, the no. of writhes ([5]; 30 mg kg^−1 per os with naloxone 1 mg kg^−1 i.p. 15 min before) was 13.6 ± 3.0, the no. of writhes [5, 8] was 12.7 ± 2.6 and the “antagonism of the analgesia by naloxone” value ([5]; 30 mg kg^−1 per os, naloxone 1 mg kg^−1 i.p.) was “not antagonized by the opioid antagonist naloxone”. For the same compound, the “change of behavioural parameters: motor coordination (rotarod)” value ([6]; 30 mg kg^−1 per os) was “does not alter the behavioural parameters”, the “FALLS IN 30 SEC, 15 min” value ([6]; 30 mg/kg per os, mice, 15 min) was 3.9 ± 0.3 and the “FALLS IN 30 SEC, 30 min” value ([6]; 30 mg/kg per os, mice, 30 min) was 1.3 ± 0.3. For the same compound, the “FALLS IN 30 SEC, 45 min” value ([6]; 30 mg/kg per os, mice, 45 min) was 0.8 ± 0.2, the “FALLS IN 30 SEC, Pre-test” value ([6]; 30 mg/kg per os, mice, pre-test) was 5.2 ± 0.3 and the “onset of the effect after administration” value ([7]; 10 mg/kg per os) was 15 min. The “time up to which the effect remained unchanged” value ([7]; 10 mg/kg per os) was “up to 45 minutes”, the “PAW PRESSURE, AFTER TREATMENT (15 min)” value ([7]; 10 mg/kg per os, left paw) was 69.5 ± 4.4 g and the “PAW PRESSURE, BEFORE TREATMENT” value ([7]; 10 mg/kg per os, left paw) was 61.9 ± 3.4 g. The reversal of hyperalgesia ([7]; 10 mg/kg per os, ligation 14 days earlier) was “able to reverse, in a statistically significant manner”, the “PAW PRESSURE, AFTER TREATMENT (15 min)” value ([7]; 10 mg/kg per os, right paw) was 48.3 ± 3.5 g and the “PAW PRESSURE, BEFORE TREATMENT” value ([7]; 10 mg/kg per os, right paw) was 25.2 ± 3.3 g. For the same compound, the “PAW PRESSURE, AFTER TREATMENT (15 min)” value ([7]; 30 mg/kg per os, left paw) was 81.6 ± 3.1 g, the “PAW PRESSURE, BEFORE TREATMENT” value ([7]; 30 mg/kg per os, left paw) was 59.2 ± 3.8 g and the “PAW PRESSURE, AFTER TREATMENT (15 min)” value ([7]; 30 mg/kg per os, right paw) was 66.3 ± 3.3 g. The “PAW PRESSURE, BEFORE TREATMENT” value ([7]; 30 mg/kg per os, right paw) was 24.8 ± 3.2 g.
For `O=C(CCCCC1CCSS1)NCCC(=O)NC(Cc1cnc[nH]1)C(=O)O` (racemic) (as salt: sodium) [Compound 2], the melting point was > 213 °C (dec.).
In the case of `COc1cccc(C2(O)CCCCC2CN(C)C)c1` (stereo not drawn) [TRAMADOL, tramadol, reference compound], the “PAW PRESSURE, AFTER TREATMENT (15 min)” value ([7]; 100 mg/kg per os, left paw) was 72.3 ± 3.0^ g, the “PAW PRESSURE, BEFORE TREATMENT” value ([7]; 100 mg/kg per os, left paw) was 58.3 ± 3.1 g and the “PAW PRESSURE, AFTER TREATMENT (15 min)” value ([7]; 100 mg/kg per os, right paw) was 55.8 ± 2.5 g. The “PAW PRESSURE, BEFORE TREATMENT” value ([7]; 100 mg/kg per os, right paw) was 25.7 ± 2.2 g.
For `CC(C)C[C@H](CN)CC(=O)O` [PREGABALIN, pregabalin, reference compound], the “PAW PRESSURE, AFTER TREATMENT (15 min)” value ([7]; 200 mg/kg per os, left paw) was 70.4 ± 3.5 g, the “PAW PRESSURE, BEFORE TREATMENT” value ([7]; 200 mg/kg per os, left paw) was 57.3 ± 3.5 g and the “PAW PRESSURE, AFTER TREATMENT (15 min)” value ([7]; 200 mg/kg per os, right paw) was 58.2 ± 3.1 g. For the same compound, the “PAW PRESSURE, BEFORE TREATMENT” value ([7]; 200 mg/kg per os, right paw) was 26.3 ± 3.0 g.
`CC(C)Cc1ccc(C(C)C(=O)O)cc1` (stereo not drawn) [IBUPROFEN, ibuprofen, reference compound] gave a no. of writhes [5, 8] of 20.3 ± 2.2 and a no. of writhes ([5]; 100 mg kg^−1 per os, 30 min before the test) of 13.5 ± 2.0.
